Where “and” joins values, the source holds several entries; their conditions need not be identical. Identical values can stand only once.
Key:
[1] = Whole blood and plasma radioactivity and partitioning after single oral [14C]DVS, dogs; assay type: in vivo, beagle dogs; conditions: single oral 30 mg/kg; for Radioactivity in Plasma, Individual Dogs / Radioactivity in Plasma, Mean ± S.D. / Radioactivity in Whole Blood, Individual Dogs: listed as [^14C]DVS, 30 mg/kg
Method: Male beagle dogs (n=4), weighing between 14.4 and 16.2 kg at the time of dosing (from an in-house colony), were used. For ease of reporting, the animals were designated numbers 5 through 8. Dose preparation, animal dosing and sample collection were performed at Wyeth Research, Pearl River, N.Y.
The oral dosing solution was prepared by suspending 19.0 mg of [^14C]DVS and 4168.3 mg of unlabeled DVS in 270 mL of vehicle (0.25% polysorbate 80, 0.5% methylcellulose in water). The radiochemical purity, specific activity and concentration of [^14C]DVS (bulk drug and dosing solution) were determined using HPLC with radiometric detection. Duplicate aliquots of the dosing solution were taken pre-, mid- and post-dose for the determination of specific activity and radioactivity concentrations of the dosing solution.
The target dose for each animal was 30 mg/kg (free base; 10 mg/mL, 3 mL/kg, 30 μCi/kg) [^14C]DVS via oral gavage. The target dose was selected because it has been used in previous pharmacokinetic studies.
Whole blood (approximately 10 mL), collected into heparinized tubes at 1, 4, 8, and 24 hours post-dose (N=4 for each time point), was analyzed. One mL of blood was transferred to a fresh tube to be used for determination of radioactivity concentrations. Plasma was obtained by centrifugation at 4° C. within two hours of blood collection. Plasma and whole blood samples were shipped on dry ice to Wyeth Research, Biotransformation Division (Collegeville, Pa.) for analysis. Triplicate aliquots of whole blood (200 μL) were placed into combusto-cones and allowed to air dry. These samples were then oxidized and radioactivity content determined. Triplicate aliquots (100 μL) of the plasma samples were analyzed for radioactivity content. The remaining plasma was stored at −70° C. until metabolite analysis.
(§1) For each dog, urine and feces were collected separately, with urine collected on dry ice and feces collected at room temperature. Collections were from 0-8 and 8-24 hours for urine and 0-24 hours for feces. Urine and fecal samples were shipped on dry ice to Wyeth Research, Biotransformation Division (Collegeville, Pa.) for analysis. Fecal samples were homogenized in approximately five volumes (v/w) of water. Aliquots of approximately 0.2 grams of the homogenate were placed into combusto-cones, weighed and allowed to air dry. These samples were then oxidized and radioactivity content determined. The remaining urine samples and fecal homogenates were stored at −70° C. until metabolite analysis. Blood samples and fecal homogenates were oxidized in a Model 307 Tri-Carb sample oxidizer, using Carbosorb® E (6 mL) as trapping agent and PermaFluor® E^+ (10 mL) as scintillant. The background reading (average of control blood or fecal samples) was subtracted from each sample reading. Aliquots of urine and plasma were analyzed directly following the addition of 10 mL of Ultima Gold™ scintillation fluid.
All radioactivity determinations were made using a Tri-Carb Model 3100TR liquid scintillation counter (Packard BioScience, Boston, Mass.) with an Ultima GOl™ or toluene standard curve. Counts per minute (CPM) were converted to disintegrations per minute (DPM) by use of external standards of known radioactivity. The quench of each standard was determined by the transformed spectral index of an external radioactive standard (tSIE). The lower limits of detection were defined as twice background.

[2] = Fecal excretion and metabolite profile by radiochromatography, dogs; assay type: in vivo, beagle dogs; conditions: single oral 30 mg/kg
Method: as §1
Fecal homogenates collected up to 24 hours post-dose were analyzed for metabolite profiles. Aliquots of approximately 2 grams of fecal homogenate were transferred to a fresh tube, an equal volume of acetonitrile (v/w) was added, and the tube vortexed. Samples were then centrifuged at 14000 rpm in an Eppendorf Model 5415C centrifuge for 10 minutes. The supernatant was transferred to a clean tube. The residue was re-suspended with 1 mL acetonitrile and centrifuged as described above. The resulting supernatant was combined with the original supernatant and analyzed for radioactivity. The supernatants were then concentrated under a stream of nitrogen in a Turbo Vap to remove the acetonitrile. An aliquot of the aqueous residue was analyzed by HPLC for profiling. Selected samples were also analyzed by LC/MS to characterize the radioactive peaks.
Chromatographic analyses were performed with a Waters Alliance model 2690 HPLC system (Waters Corp., Milford, Mass.). It was equipped with a built-in autosampler and was in-line with a model 2487 tunable UV detector, set to monitor 225 nm, and a FloOne β Model 515 radioactivity flow detector (Perkin Elmer) with a 250 μL LQTR flow cell. The flow rate of Ultima Flow M scintillation fluid was 3 mL/min, providing a mixing ratio of scintillation cocktail to mobile phase of 3:1. Separation of the metabolite peaks was accomplished on a Phenomenex Luna C18(2) column, 250×4.6 mm, 5 micron (Phenomenex, Torrance, Calif.), using a linear gradient of two mobile phases, A and B. Mobile phase A was 10 mM ammonium acetate, pH 5.5, and mobile phase B was acetonitrile. The flow rate was 1 mL/min.

[3] = Stability of [14C]DVS in control dog urine; assay type: in vitro ADME; conditions: 37° C., up to 24 hours
Method: The stability of [^14C]DVS in dog urine was determined. [^14C]DVS (0.025 mg/mL, final concentration) was added to control dog urine and incubated in a shaking water bath set to 37° C. Aliquots (1 mL) were removed at 0, 1, 4, 8 and 24 hours. Samples were extracted as described above and radiopurity assayed by HPLC analysis.

dog liver microsomes = test: Glucuronidation in dog liver microsomes; assay type: in vitro ADME; conditions: dog liver microsomes 1 mg/mL, 100 μM, 30 minutes; in the presence of only UDPGA
Method: To confirm the site of glucuronidation of DVS, incubations were performed using dog liver microsomes. These incubations compared the glucuronidation of DVS to venlafaxine. […] Reactions were initiated by the addition of UDPGA (final concentration 1 mM). An additional set of incubations was performed for venlafaxine with UDPGA and an NADPH generating system. […] Reactions were stopped by the addition of 500 μL of acetonitrile and processed as described above. Samples were analyzed by LC/MS.

[4] = test system: norepinephrine levels in the brains; test: Norepinephrine levels in the brains of rats; assay type: in vivo; conditions: 30 mg/kg (free base), administered subcutaneously, male Sprague Dawley rats

Radioactivity in Whole Blood, Mean ± S.D. ([1]; 1 hr): 8.37 ± 1.45 μg equivalents/mL | Radioactivity in Whole Blood, Mean ± S.D. ([1]; 4 hr): 8.58 ± 0.59 μg equivalents/mL | Radioactivity in Whole Blood, Mean ± S.D. ([1]; 8 hr): 3.84 ± 1.01 μg equivalents/mL | Radioactivity in Whole Blood, Mean ± S.D. ([1]; 24 hr): 0.48 ± 0.20 μg equivalents/mL | Compounds Detected by Radiochromatography in feces, percent of total peaks, individual dogs ([2]; feces 0-24 hours post dose (dog 7 until 48 hours), average of 2 analyses): 78.6% and 50.6% and 85.7% and 88.8% | Radioactivity as % of Dose in feces, individual dogs ([2]; feces 0-24 hours post dose (dog 7 until 48 hours), listed as [^14C]DVS): 4.4% and 0.3% and 4.0% and 3.3% | Compounds Detected by Radiochromatography in feces, percent of total peaks, Mean ± S.D. ([2]; feces 0-24 hours post dose): 76% and 75.9 ± 17.4% | Radioactivity as % of Dose in feces, Mean ± S.D. ([2]; feces 0-24 hours post dose): approximately 3% | Radioactivity as % of Dose in feces, Mean ± S.D. ([2]; feces 0-24 hours post dose, listed as [^14C]DVS): 3.0 ± 1.9% | Stability of [14C]DVS in control dog urine [3]: stable | glucuronidation (dog liver microsomes): observed
SMILES: CN(C)CC(c1ccc(O)cc1)C1(O)CCCCC1.O=C(O)CCC(=O)O (stereo not drawn) [DVS, O-desmethylvenlafaxine succinate]
Radioactivity in Plasma, Individual Dogs ([1]; 1 hr): 14.6 μg equivalents/mL and 11.5 μg equivalents/mL and 9.56 μg equivalents/mL and 17.5 μg equivalents/mL | Radioactivity in Plasma, Mean ± S.D. ([1]; 1 hr): 13.3 μg equivalents/mL and 13.3 ± 3.5 μg equivalents/mL | Radioactivity in Whole Blood, Individual Dogs ([1]; 1 hr): 8.56 μg equivalents/mL and 8.61 μg equivalents/mL and 6.40 μg equivalents/mL and 9.91 μg equivalents/mL | Radioactivity in Plasma, Individual Dogs ([1]; 4 hr): 17.0 μg equivalents/mL and 16.8 μg equivalents/mL and 16.5 μg equivalents/mL and 17.1 μg equivalents/mL | Radioactivity in Plasma, Mean ± S.D. ([1]; 4 hr): 16.9 μg equivalents/mL and 16.9 ± 0.3 μg equivalents/mL | Radioactivity in Whole Blood, Individual Dogs ([1]; 4 hr): 8.16 μg equivalents/mL and 8.03 μg equivalents/mL and 8.82 μg equivalents/mL and 9.30 μg equivalents/mL | Radioactivity in Plasma, Individual Dogs ([1]; 8 hr): 4.51 μg equivalents/mL and 9.12 μg equivalents/mL and 10.2 μg equivalents/mL and 5.87 μg equivalents/mL | Radioactivity in Plasma, Mean ± S.D. ([1]; 8 hr): 7.43 μg equivalents/mL and 7.43 ± 2.68 μg equivalents/mL | Radioactivity in Whole Blood, Individual Dogs ([1]; 8 hr): 3.30 μg equivalents/mL and 3.79 μg equivalents/mL and 5.27 μg equivalents/mL and 2.98 μg equivalents/mL | Radioactivity in Plasma, Individual Dogs ([1]; 24 hr): 0.66 μg equivalents/mL and 0.86 μg equivalents/mL and 1.14 μg equivalents/mL and 0.56 μg equivalents/mL | Radioactivity in Plasma, Mean ± S.D. ([1]; 24 hr): 0.81 μg equivalents/mL and 0.81 ± 0.25 μg equivalents/mL | Radioactivity in Whole Blood, Individual Dogs ([1]; 24 hr): 0.38 μg equivalents/mL and 0.47 μg equivalents/mL and 0.75 μg equivalents/mL and 0.31 μg equivalents/mL | norepinephrine levels in the brains [4]: significantly increased
